Source: patent publication US6737383B1, “Herbicidal oxadiazolidines” (priority 1999, dated 2004)

Tests used:
blackgrass = test: Test B pre/postemergence blackgrass; type: in vivo, Alopecurus myosuroides
Procedure, shortened: (§1)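 Herbicidal effect was estimated by eye on a ten-point control scale after plants spent twelve to sixteen days in a greenhouse following soil or foliar treatment. Foliar sprays targeted plants at one to four leaves; all doses were formulated in a non-phytotoxic solvent with surfactant.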

wild oat = test: Test B pre/postemergence wild oat; type: in vivo, Avena fatua
Procedure, shortened: as §1

corn = test: Test B pre/postemergence corn; type: in vivo, Zea mays
Procedure, shortened: as §1

rape = test: Test B pre/postemergence rape; type: in vivo, Brassica napus
Procedure, shortened: as §1

crabgrass = test: Test B pre/postemergence crabgrass; type: in vivo, Digitaria sanguinalis
Procedure, shortened: as §1

surinam grass = test: Test B pre/postemergence surinam grass; type: in vivo, Brachiaria decumbens
Procedure, shortened: as §1

bamyardgrass = test: Test B flood test barnyardgrass; type: in vivo, Echinochloa crus-galli
Procedure, shortened: (§2)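 Each value is a visual injury score relative to controls, with 10 meaning complete control and 0 no effect. Evaluation took place twelve to sixteen days after the 2-leaf-stage plants were treated and kept in the greenhouse.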

sugar beet = test: Test B pre/postemergence sugar beet; type: in vivo, Beta vulgaris
Procedure, shortened: as §1

purple nutsedge = test: Test B pre/postemergence purple nutsedge; type: in vivo, Cyperus rotundus
Procedure, shortened: as §1

pigweed = test: Test B pre/postemergence pigweed; type: in vivo, Amaranthus retroflexus
Procedure, shortened: as §1

wheat = test: Test B pre/postemergence wheat; type: in vivo, Triticum aestivum
Procedure, shortened: as §1

morningglory = test: Test B pre/postemergence morningglory; type: in vivo, Ipomoea hederacea
Procedure, shortened: as §1

bedstraw = test: Test B pre/postemergence bedstraw; type: in vivo, Galium aparine
Procedure, shortened: as §1

cocklebur = test: Test B pre/postemergence cocklebur; type: in vivo, Xanthium strumarium
Procedure, shortened: as §1

giant foxtail = test: Test B pre/postemergence giant foxtail; type: in vivo, Setaria faberii
Procedure, shortened: as §1

rice = test: Test B flood test rice; type: in vivo, Oryza sativa
Procedure, shortened: as §2

[1] = Preemergence, Rate 62 g/ha, scale of 0 to 10 where 0 is no effect and 10 is complete control
[2] = Preemergence, Rate 250 g/ha, scale of 0 to 10 where 0 is no effect and 10 is complete control
[3] = Preemergence, Rate 500 g/ha, scale of 0 to 10 where 0 is no effect and 10 is complete control
[4] = Rate 62 g/ha, Postemergence, scale of 0 to 10 where 0 is no effect and 10 is complete control
[5] = Rate 125 g/ha, Postemergence, scale 0 to 10
[6] = Rate 125 g/ha, Preemergence, scale of 0 to 10 where 0 is no effect and 10 is complete control
[7] = Rate 500 g/ha, Postemergence, scale 0 to 10, 0 no effect, 10 complete control
[8] = Rate 62 g/ha, headed Pre-emergence (flood test species), scale 0 to 10 (0 no effect, 10 complete control)
[9] = Rate 125 g/ha, Pre-emergence, flood test species, scale 0 to 10 where 0 is no effect and 10 is complete control
[10] = Rate 250 g/ha, Pre-emergence, flood-test species, scale 0 to 10, 0 is no effect, 10 is complete control
[11] = Rate 500 g/ha, Pre-emergence, flood test species, scale 0 to 10 (0 no effect, 10 complete control)

CCN(C(=O)n1oc(=O)n(C)c1=O)C1CCCCC1 [Compound 228]
Blackgrass plant response rating (blackgrass; [1]): 0
Blackgrass plant response rating (blackgrass; [2]): 0
Plant response rating, Blackgrass (blackgrass; [3]): 0
Blackgrass plant response rating (blackgrass; [4]): 0
Blackgrass plant response rating (blackgrass; [5]): 0
Blackgrass plant response rating (blackgrass; [6]): 0
Plant response rating (0 to 10; 0 is no effect, 10 is complete control), Blackgrass (blackgrass; Rate 250 g/ha, Postemergence): 0
Blackgrass plant response rating (blackgrass; [7]): 0
Wild oats plant response rating (wild oat; [1]): 0
Wild oats plant response rating (wild oat; [2]): 0
Plant response rating, Wild oats (wild oat; [3]): 0
Wild oats plant response rating (wild oat; [4]): 0
Wild oats plant response rating (wild oat; [5]): 0
Wild oats plant response rating (wild oat; [6]): 0
Plant response rating (0 to 10; 0 is no effect, 10 is complete control), Wild oats (wild oat; Rate 250 g/ha, Postemergence): 0
Wild oats plant response rating (wild oat; [7]): 0
Corn plant response rating (corn; [1]): 0
Corn plant response rating (corn; [2]): 0
Plant response rating, Corn (corn; [3]): 0
Corn plant response rating (corn; [4]): 0
Corn plant response rating (corn; [5]): 0
Corn plant response rating (corn; [6]): 0
Plant response rating (0 to 10; 0 is no effect, 10 is complete control), Corn (corn; Rate 250 g/ha, Postemergence): 0
Corn plant response rating (corn; [7]): 2
Rape plant response rating (rape; [1]): 0
Rape plant response rating (rape; [2]): 0
Plant response rating, Rape (rape; [3]): 0
Rape plant response rating (rape; [4]): 0
Rape plant response rating (rape; [5]): 0
Rape plant response rating (rape; [6]): 0
Plant response rating (0 to 10; 0 is no effect, 10 is complete control), Rape (rape; Rate 250 g/ha, Postemergence): 0
Rape plant response rating (rape; [7]): 0
Crabgrass plant response rating (crabgrass; [1]): 0
Crabgrass plant response rating (crabgrass; [2]): 1
Plant response rating, Crabgrass (crabgrass; [3]): 2
Crabgrass plant response rating (crabgrass; [4]): 0
Crabgrass plant response rating (crabgrass; [5]): 0
Crabgrass plant response rating (crabgrass; [6]): 0
Plant response rating (0 to 10; 0 is no effect, 10 is complete control), Crabgrass (crabgrass; Rate 250 g/ha, Postemergence): 0
Crabgrass plant response rating (crabgrass; [7]): 0
B. signalgrass plant response rating (surinam grass; [1]): 0
B. signalgrass plant response rating (surinam grass; Preemergence, Rate 250 g/ha, scale 0 to 10, 0 is no effect, 10 is complete control): 0
Plant response rating, B. signalgrass (surinam grass; [3]): 0
B. signalgrass plant response rating (surinam grass; [4]): 0
B. signalgrass plant response rating (surinam grass; Rate 125 g/ha, Postemergence, scale 0 (no effect) to 10 (complete control)): 0
B. signalgrass plant response rating (surinam grass; [6]): 0
Plant response rating (0 to 10; 0 is no effect, 10 is complete control), B. signalgrass (surinam grass; Rate 250 g/ha, Postemergence): 0
B. signalgrass plant response rating (surinam grass; [7]): 0
Barnyardgrass plant response rating (bamyardgrass; [8]): 0
Barnyardgrass plant response rating (bamyardgrass; [9]): 0
Barnyardgrass plant response rating (bamyardgrass; [10]): 0
Barnyardgrass plant response rating (bamyardgrass; [11]): 0
Sugarbeets plant response rating (sugar beet; [1]): 0
Sugarbeets plant response rating (sugar beet; [2]): 0
Plant response rating, Sugarbeets (sugar beet; [3]): 0
Sugarbeets plant response rating (sugar beet; [4]): 0
Sugarbeets plant response rating (sugar beet; [5]): 0
Sugarbeets plant response rating (sugar beet; [6]): 0
Plant response rating (0 to 10; 0 is no effect, 10 is complete control), Sugarbeets (sugar beet; Rate 250 g/ha, Postemergence): 3
Sugarbeets plant response rating (sugar beet; [7]): 4
Nutsedge plant response rating (purple nutsedge; [1]): 0
Nutsedge plant response rating (purple nutsedge; [2]): 0
Plant response rating, Nutsedge (purple nutsedge; [3]): 0
Nutsedge plant response rating (purple nutsedge; [4]): 0
Nutsedge plant response rating (purple nutsedge; [5]): 0
Nutsedge plant response rating (purple nutsedge; [6]): 0
Plant response rating (0 to 10; 0 is no effect, 10 is complete control), Nutsedge (purple nutsedge; Rate 250 g/ha, Postemergence): 0
Nutsedge plant response rating (purple nutsedge; [7]): 0
Redroot pigweed plant response rating (pigweed; [1]): 0
Redroot pigweed plant response rating (pigweed; [2]): 0
Plant response rating, Redroot pigweed (pigweed; [3]): 0
Redroot pigweed plant response rating (pigweed; [4]): 0
Redroot pigweed plant response rating (pigweed; [5]): 0
Redroot pigweed plant response rating (pigweed; [6]): 0
Plant response rating (0 to 10; 0 is no effect, 10 is complete control), Redroot pigweed (pigweed; Rate 250 g/ha, Postemergence): 0
Redroot pigweed plant response rating (pigweed; [7]): 2
Wheat plant response rating (wheat; [1]): 0
Wheat plant response rating (wheat; [2]): 0
Plant response rating, Wheat (wheat; [3]): 0
Wheat plant response rating (wheat; [4]): 0
Wheat plant response rating (wheat; [5]): 0
Wheat plant response rating (wheat; [6]): 0
Plant response rating (0 to 10; 0 is no effect, 10 is complete control), Wheat (wheat; Rate 250 g/ha, Postemergence): 0
Wheat plant response rating (wheat; [7]): 0
Morningglory plant response rating (morningglory; [1]): 0
Morningglory plant response rating (morningglory; [2]): 0
Plant response rating, Morningglory (morningglory; [3]): 0
Morningglory plant response rating (morningglory; [4]): 2
Morningglory plant response rating (morningglory; [5]): 3
Morningglory plant response rating (morningglory; [6]): 0
Plant response rating (0 to 10; 0 is no effect, 10 is complete control), Morningglory (morningglory; Rate 250 g/ha, Postemergence): 3
Morningglory plant response rating (morningglory; [7]): 9
Bedstraw plant response rating (bedstraw; [1]): 0
Bedstraw plant response rating (bedstraw; [2]): 0
Plant response rating, Bedstraw (bedstraw; [3]): 0
Bedstraw plant response rating (bedstraw; [4]): 0
Bedstraw plant response rating (bedstraw; [5]): 0
Bedstraw plant response rating (bedstraw; [6]): 0
Plant response rating (0 to 10; 0 is no effect, 10 is complete control), Bedstraw (bedstraw; Rate 250 g/ha, Postemergence): 0
Bedstraw plant response rating (bedstraw; [7]): 2
Cocklebur plant response rating (cocklebur; [1]): 0
Cocklebur plant response rating (cocklebur; [2]): 0
Plant response rating, Cocklebur (cocklebur; [3]): 0
Cocklebur plant response rating (cocklebur; [4]): 0
Cocklebur plant response rating (cocklebur; [5]): 0
Cocklebur plant response rating (cocklebur; [6]): 0
Plant response rating (0 to 10; 0 is no effect, 10 is complete control), Cocklebur (cocklebur; Rate 250 g/ha, Postemergence): 0
Cocklebur plant response rating (cocklebur; [7]): 0
Giant foxtail plant response rating (giant foxtail; [2]): 9
Plant response rating, Giant foxtail (giant foxtail; [3]): 9
Giant foxtail plant response rating (giant foxtail; [4]): 0
Giant foxtail plant response rating (giant foxtail; [5]): 0
Giant foxtail plant response rating (giant foxtail; [6]): 6
Plant response rating (0 to 10; 0 is no effect, 10 is complete control), Giant foxtail (giant foxtail; Rate 250 g/ha, Postemergence): 0
Giant foxtail plant response rating (giant foxtail; [7]): 0
Rice plant response rating (rice; [8]): 0
Rice plant response rating (rice; [9]): 0
Rice plant response rating (rice; [10]): 0
Rice plant response rating (rice; [11]): 0
